Measurements reported in the kinase profiling compilation of Christmann-Franck et al. (2016).
“And” between values parts separate entries of the source, which are not always exact repeats. Equal entries are not always repeated.

Tests used:
Assay in all cases: Caliper, Mobility shift assay off-chip
[1] = target: MAP4K2 (human) (UniProt Q12851)
[2] = target: MAPKAPK3 (human) (UniProt Q16644)
[3] = target: HIPK4 (human) (UniProt Q8NE63)
[4] = target: IKBKB (human) (UniProt O14920)
[5] = target: FLT1 (human) (UniProt P17948)
[6] = target: NEK7 (human) (UniProt Q8TDX7)
[7] = target: MUSK (human) (UniProt O15146)
[8] = target: JAK3 JH1 JH2 (human) (UniProt P52333)
[9] = target: TSSK1B (human) (UniProt Q9BXA7)
[10] = target: TNIK (human) (UniProt Q9UKE5)
[11] = target: SPHK1 (human) (UniProt Q9NYA1)
[12] = target: PRKX (human) (UniProt P51817)
[13] = target: TYK2 JH1 JH2 (human) (UniProt P29597); conditions: compound 0.02 µM
[14] = target: CAMK2B (human) (UniProt Q13554)
[15] = target: FGFR1 (human) (UniProt P11362)
[16] = target: DYRK1B (human) (UniProt Q9Y463)
[17] = target: PIM2 (human) (UniProt Q9P1W9)
[18] = target: MAPK8 (human) (UniProt P45983)
[19] = target: MAPK9 (human) (UniProt P45984)
[20] = target: CAMK1 (human) (UniProt Q14012)
[21] = target: CSNK1D (human) (UniProt P48730)
[22] = target: NUAK1 (human) (UniProt O60285)
[23] = target: BRSK1 (human) (UniProt Q8TDC3)
[24] = target: PRKCB1 (human) (UniProt P05771)
[25] = target: WNK2 (human) (UniProt Q9Y3S1)
[26] = target: CDK1 (human) (UniProt P06493)
[27] = target: MYLK2 (human) (UniProt Q9H1R3)
[28] = target: FYN (human) (UniProt P06241)
[29] = target: PRKG2 (human) (UniProt Q13237)
[30] = target: MINK1 (human) (UniProt Q8N4C8)
[31] = target: EPHA3 (human) (UniProt P29320)
[32] = target: NEK4 (human) (UniProt P51957)
[33] = target: CHUK (human) (UniProt O15111)

PRKCB1 (human), sequence (P05771 whole entry, looked up): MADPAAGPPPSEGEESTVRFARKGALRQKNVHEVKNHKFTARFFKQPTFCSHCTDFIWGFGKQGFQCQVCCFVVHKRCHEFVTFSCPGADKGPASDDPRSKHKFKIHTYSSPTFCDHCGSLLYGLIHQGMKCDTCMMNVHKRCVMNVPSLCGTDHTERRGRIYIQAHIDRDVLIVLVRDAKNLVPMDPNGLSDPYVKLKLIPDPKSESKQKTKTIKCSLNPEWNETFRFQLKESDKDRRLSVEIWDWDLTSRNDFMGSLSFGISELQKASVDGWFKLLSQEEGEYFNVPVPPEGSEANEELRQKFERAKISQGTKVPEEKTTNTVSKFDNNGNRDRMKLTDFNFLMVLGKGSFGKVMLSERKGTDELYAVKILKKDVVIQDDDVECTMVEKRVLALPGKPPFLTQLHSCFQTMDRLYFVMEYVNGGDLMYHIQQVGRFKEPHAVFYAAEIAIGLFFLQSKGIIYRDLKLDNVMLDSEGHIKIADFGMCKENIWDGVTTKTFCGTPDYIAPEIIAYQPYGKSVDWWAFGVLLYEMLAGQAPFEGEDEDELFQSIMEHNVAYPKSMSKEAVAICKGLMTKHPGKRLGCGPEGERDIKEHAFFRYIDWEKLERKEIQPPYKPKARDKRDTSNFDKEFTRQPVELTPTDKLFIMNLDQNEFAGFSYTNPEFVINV
CSNK1D (human), sequence (P48730 whole entry, looked up): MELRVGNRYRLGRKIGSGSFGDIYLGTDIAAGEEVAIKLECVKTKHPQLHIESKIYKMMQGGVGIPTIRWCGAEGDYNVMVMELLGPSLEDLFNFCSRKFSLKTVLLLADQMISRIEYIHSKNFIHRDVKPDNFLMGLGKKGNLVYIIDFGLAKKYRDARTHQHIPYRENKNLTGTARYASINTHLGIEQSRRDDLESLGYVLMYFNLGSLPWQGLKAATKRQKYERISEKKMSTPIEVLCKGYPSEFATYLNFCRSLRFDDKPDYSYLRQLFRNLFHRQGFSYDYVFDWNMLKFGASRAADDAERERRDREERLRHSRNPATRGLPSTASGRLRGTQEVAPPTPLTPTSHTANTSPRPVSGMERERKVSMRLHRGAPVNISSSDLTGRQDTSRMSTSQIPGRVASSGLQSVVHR
CDK1 (human), sequence (P06493 whole entry, looked up): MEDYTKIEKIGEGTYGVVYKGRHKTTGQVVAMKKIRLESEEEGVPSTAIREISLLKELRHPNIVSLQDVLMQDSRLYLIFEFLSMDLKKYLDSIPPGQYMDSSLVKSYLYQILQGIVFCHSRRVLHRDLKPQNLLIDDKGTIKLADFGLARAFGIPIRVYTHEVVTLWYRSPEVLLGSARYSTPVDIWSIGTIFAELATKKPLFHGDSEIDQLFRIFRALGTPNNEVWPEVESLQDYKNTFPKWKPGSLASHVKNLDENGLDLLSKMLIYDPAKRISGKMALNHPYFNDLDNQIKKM
MUSK (human), sequence (O15146 whole entry, looked up): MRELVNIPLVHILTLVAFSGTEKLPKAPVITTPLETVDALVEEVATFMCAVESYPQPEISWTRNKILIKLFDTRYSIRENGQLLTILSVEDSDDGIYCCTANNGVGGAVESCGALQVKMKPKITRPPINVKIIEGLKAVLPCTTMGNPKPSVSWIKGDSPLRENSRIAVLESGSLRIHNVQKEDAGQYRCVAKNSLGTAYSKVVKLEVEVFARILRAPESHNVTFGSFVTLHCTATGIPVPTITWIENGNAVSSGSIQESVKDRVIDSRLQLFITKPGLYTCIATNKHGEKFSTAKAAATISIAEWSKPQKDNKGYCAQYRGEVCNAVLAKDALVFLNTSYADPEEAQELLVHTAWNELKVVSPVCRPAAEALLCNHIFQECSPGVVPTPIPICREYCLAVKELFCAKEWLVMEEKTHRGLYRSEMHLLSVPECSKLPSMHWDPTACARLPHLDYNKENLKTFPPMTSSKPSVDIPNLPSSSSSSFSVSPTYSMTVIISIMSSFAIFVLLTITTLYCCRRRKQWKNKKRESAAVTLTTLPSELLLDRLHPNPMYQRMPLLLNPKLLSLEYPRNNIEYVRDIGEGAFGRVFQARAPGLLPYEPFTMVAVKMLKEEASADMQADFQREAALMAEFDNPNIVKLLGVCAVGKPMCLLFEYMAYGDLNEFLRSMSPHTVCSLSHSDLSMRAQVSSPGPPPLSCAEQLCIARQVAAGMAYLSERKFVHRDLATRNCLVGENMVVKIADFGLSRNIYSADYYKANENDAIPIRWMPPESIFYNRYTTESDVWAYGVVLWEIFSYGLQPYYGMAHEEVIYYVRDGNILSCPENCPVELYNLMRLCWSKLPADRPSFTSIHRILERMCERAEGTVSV
MINK1 (human), sequence (Q8N4C8 whole entry, looked up): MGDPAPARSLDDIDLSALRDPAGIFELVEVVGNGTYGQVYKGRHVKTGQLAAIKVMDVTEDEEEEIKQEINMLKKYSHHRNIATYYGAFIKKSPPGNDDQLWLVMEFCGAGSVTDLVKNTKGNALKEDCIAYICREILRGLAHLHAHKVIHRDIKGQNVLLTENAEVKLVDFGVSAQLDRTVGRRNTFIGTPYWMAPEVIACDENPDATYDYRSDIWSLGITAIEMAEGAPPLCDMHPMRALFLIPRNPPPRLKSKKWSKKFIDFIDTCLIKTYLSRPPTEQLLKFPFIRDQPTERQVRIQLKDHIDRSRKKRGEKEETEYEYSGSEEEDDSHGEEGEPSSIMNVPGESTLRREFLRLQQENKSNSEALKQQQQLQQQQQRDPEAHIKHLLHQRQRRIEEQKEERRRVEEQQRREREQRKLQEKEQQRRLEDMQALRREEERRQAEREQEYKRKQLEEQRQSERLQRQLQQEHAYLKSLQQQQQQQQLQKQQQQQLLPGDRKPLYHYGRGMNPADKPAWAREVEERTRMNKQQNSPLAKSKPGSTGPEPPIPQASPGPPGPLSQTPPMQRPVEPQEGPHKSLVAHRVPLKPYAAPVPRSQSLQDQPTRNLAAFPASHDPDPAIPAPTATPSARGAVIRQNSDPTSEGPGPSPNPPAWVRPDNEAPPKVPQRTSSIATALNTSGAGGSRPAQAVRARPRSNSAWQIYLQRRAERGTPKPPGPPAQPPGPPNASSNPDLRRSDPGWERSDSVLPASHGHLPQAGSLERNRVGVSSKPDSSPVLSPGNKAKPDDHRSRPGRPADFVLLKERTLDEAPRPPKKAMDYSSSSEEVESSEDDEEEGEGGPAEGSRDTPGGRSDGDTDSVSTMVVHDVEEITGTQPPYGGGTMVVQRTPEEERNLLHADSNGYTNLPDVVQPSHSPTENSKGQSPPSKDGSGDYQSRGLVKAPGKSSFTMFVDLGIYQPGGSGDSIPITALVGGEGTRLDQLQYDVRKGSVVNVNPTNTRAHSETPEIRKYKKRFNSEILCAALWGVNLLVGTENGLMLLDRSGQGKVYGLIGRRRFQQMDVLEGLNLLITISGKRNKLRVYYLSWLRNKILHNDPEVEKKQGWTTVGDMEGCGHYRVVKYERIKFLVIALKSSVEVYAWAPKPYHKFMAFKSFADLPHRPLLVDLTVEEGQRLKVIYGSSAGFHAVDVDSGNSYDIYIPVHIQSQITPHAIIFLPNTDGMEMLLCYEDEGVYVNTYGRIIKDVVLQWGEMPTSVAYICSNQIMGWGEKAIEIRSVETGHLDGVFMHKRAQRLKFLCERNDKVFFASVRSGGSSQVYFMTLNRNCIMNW
IKBKB (human), sequence (O14920 whole entry, looked up): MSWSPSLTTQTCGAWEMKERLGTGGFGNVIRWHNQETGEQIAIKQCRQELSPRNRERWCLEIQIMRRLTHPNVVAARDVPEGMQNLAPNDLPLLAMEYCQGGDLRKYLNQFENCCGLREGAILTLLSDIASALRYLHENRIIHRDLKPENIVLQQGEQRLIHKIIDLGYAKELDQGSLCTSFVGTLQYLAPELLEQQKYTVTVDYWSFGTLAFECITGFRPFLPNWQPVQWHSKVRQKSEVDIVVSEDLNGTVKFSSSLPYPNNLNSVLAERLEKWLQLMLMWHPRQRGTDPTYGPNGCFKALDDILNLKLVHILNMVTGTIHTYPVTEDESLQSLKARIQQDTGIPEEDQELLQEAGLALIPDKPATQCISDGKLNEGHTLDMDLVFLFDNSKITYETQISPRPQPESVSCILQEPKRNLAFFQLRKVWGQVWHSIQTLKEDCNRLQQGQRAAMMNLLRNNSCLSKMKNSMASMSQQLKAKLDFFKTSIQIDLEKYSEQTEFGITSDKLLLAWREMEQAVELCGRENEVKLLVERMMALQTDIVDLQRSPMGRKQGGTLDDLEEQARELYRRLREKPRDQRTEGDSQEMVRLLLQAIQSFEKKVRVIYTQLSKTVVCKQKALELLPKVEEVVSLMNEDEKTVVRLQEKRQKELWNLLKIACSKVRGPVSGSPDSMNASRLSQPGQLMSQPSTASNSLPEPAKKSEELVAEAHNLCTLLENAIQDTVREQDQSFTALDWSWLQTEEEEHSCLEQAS
NUAK1 (human), sequence (O60285 whole entry, looked up): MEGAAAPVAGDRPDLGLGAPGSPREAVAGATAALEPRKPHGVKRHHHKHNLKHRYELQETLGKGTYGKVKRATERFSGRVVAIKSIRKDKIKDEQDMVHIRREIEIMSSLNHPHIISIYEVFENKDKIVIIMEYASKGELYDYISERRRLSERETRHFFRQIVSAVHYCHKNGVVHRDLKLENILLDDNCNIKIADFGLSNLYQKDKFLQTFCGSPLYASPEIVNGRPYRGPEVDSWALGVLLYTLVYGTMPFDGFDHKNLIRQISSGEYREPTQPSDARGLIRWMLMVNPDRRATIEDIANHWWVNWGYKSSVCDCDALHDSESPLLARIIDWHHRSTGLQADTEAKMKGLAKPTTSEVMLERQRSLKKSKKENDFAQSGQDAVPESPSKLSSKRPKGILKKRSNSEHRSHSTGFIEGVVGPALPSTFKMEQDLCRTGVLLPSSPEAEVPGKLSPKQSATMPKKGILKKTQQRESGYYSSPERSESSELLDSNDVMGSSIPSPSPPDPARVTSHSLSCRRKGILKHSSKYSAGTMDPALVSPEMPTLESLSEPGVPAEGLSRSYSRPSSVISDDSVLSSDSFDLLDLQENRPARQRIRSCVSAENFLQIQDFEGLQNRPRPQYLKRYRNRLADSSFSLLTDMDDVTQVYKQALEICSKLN

## CNC(=O)c1cc(Oc2ccc(NC(=O)Nc3ccc(Cl)c(C(F)(F)F)c3)cc2)ccn1
[1]; compound 0.02 µM
  inhibition: 3.2%
[1]; compound 0.2 µM
  inhibition: 11.5%
[2]; compound 0.02 µM
  inhibition: -6.2%
[2]; compound 0.2 µM
  inhibition: 3.5%
[3]; compound 0.02 µM
  inhibition: 84%
[3]; compound 0.2 µM
  inhibition: 98.4%
[4]; compound 0.02 µM
  inhibition: 0.9%
[4]; compound 0.2 µM
  inhibition: 1.4%
[5]; compound 0.02 µM
  inhibition: 49.3%
[5]; compound 0.2 µM
  inhibition: 99.6%
[6]; compound 0.02 µM
  inhibition: -3.3%
[6]; compound 0.2 µM
  inhibition: -3.3%
[7]; compound 0.02 µM
  inhibition: 24.4%
[7]; compound 0.2 µM
  inhibition: 73.9%
[8]; compound 0.02 µM
  inhibition: -3.6%
[8]; compound 0.2 µM
  inhibition: 8.1%
[9]; compound 0.02 µM
  inhibition: -3.7%
[9]; compound 0.2 µM
  inhibition: -2.9%
[10]; compound 0.02 µM
  inhibition: -6.2%
[10]; compound 0.2 µM
  inhibition: 0.8%
[11]; compound 0.02 µM
  inhibition: -3.1%
[11]; compound 0.2 µM
  inhibition: 3.2%
[12]; compound 0.02 µM
  inhibition: -7%
[12]; compound 0.2 µM
  inhibition: 0.2%
[13]
  inhibition: -2.4%
[14]; compound 0.02 µM
  inhibition: -6.4%
[14]; compound 0.2 µM
  inhibition: -7%
[15]; compound 0.02 µM
  inhibition: 5.3%
[15]; compound 0.2 µM
  inhibition: 49.9%
[16]; compound 0.02 µM
  inhibition: -6.7%
[16]; compound 0.2 µM
  inhibition: 0.6%
[17]; compound 0.02 µM
  inhibition: -0.2%
[17]; compound 0.2 µM
  inhibition: 1.2%
[18]; compound 0.02 µM
  inhibition: -2.3%
[18]; compound 0.2 µM
  inhibition: -2.1%
[19]; compound 0.02 µM
  inhibition: -7.7%
[19]; compound 0.2 µM
  inhibition: 0.5%
[20]; compound 0.02 µM
  inhibition: -4.6%
[20]; compound 0.2 µM
  inhibition: -2.2%
[21]; compound 0.02 µM
  inhibition: -2.4% and -2.9%
[21]; compound 0.2 µM
  inhibition: -3.6%
[22]; compound 0.02 µM
  inhibition: -3.8%
[22]; compound 0.2 µM
  inhibition: 3.8%
[23]; compound 0.02 µM
  inhibition: -2.6%
[23]; compound 0.2 µM
  inhibition: -6%
[24]; compound 0.02 µM
  inhibition: -0.2% and -0.6%
[24]; compound 0.2 µM
  inhibition: 22% and 17.2%
[25]; compound 0.02 µM
  inhibition: -8.6%
[25]; compound 0.2 µM
  inhibition: 3.6%
[26]; compound 0.02 µM
  inhibition: -2%
[26]; compound 0.2 µM
  inhibition: -2%
[27]; compound 0.02 µM
  inhibition: -3.3%
[27]; compound 0.2 µM
  inhibition: -2.4%
[28]; compound 0.02 µM
  inhibition: -2.5%
[28]; compound 0.2 µM
  inhibition: 14.5%
[29]; compound 0.02 µM
  inhibition: -4.4%
[29]; compound 0.2 µM
  inhibition: -0.6%
[30]; compound 0.02 µM
  inhibition: -3.3%
[30]; compound 0.2 µM
  inhibition: 4.1%
[31]; compound 0.02 µM
  inhibition: -2.6%
[31]; compound 0.2 µM
  inhibition: 17%
[32]; compound 0.02 µM
  inhibition: -3%
[32]; compound 0.2 µM
  inhibition: -0.8%
[33]; compound 0.02 µM
  inhibition: 3.4%
[33]; compound 0.2 µM
  inhibition: 1%
